Laboratory results: patent publication US12667572B2, “Tricyclic compounds useful in the treatment of cancer, autoimmune and inflammatory disorders” (SCHRÖDINGER, INC., priority 2021, dated 2026)

Biological target: T1, full-length MALT1 protein His-MALT1(1-824) (Homo sapiens, UniProt Q9UDY8)
T1 construct: full-length MALT1 protein His-MALT1(1-824); His (N); made in house; host or cells: baculovirus-infected insect cells
T1 sequence (Q9UDY8 1-824): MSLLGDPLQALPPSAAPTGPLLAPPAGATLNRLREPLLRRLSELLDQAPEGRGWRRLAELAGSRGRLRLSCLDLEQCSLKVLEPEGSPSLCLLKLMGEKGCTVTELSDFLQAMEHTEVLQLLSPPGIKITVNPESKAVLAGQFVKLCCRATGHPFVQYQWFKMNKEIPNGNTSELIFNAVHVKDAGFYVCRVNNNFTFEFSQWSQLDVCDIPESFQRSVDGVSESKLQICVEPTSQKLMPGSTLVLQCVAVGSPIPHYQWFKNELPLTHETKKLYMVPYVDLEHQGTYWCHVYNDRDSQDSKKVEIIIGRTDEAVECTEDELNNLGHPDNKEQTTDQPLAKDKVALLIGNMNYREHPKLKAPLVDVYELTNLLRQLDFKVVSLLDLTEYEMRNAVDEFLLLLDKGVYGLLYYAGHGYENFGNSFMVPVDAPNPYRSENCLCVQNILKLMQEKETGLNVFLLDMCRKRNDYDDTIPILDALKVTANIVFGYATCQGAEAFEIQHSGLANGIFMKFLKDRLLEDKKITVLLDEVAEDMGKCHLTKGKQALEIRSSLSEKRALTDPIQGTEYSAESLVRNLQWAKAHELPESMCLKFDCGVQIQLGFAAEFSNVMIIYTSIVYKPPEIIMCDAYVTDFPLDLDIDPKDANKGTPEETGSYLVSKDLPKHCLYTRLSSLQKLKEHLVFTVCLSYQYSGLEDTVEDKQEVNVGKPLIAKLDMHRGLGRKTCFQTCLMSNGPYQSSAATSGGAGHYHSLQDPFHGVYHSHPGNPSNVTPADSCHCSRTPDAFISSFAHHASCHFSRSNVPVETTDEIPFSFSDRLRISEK
Assay: MALT1 protease assay, Assay 2 (1 nM MALT1, Ac-LRSR-AMC substrate)
Assay type: biochemical
Conditions: 1 nM MALT1, 50 μM Ac-LRSR-AMC, 2 h pre-incubation, 8 hr incubation at RT
In short: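 Compounds (0.1% DMSO final) sat 2 h at RT with insect-cell-expressed His-MALT1(1-824), in 50 mM Tris pH 7.5, 600 mM sodium citrate, 1 mM DTT, 1 mM EDTA, 0.05% BSA. Cleavage of 50 μM Ac-LRSR-AMC (Km ~100 μM) ran 8 h at RT, read as AMC fluorescence. IC50 and Hill coefficient fitted to % remaining activity.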

Compound | IC50 [nM]
C[C@H](O)c1cnn(-c2ncc(NC(=O)[C@@H]3CC4(CCC4)c4c3cnc3cc(Cl)nn43)cc2Cl)n1 (single isomer, unassigned) [Example 159] | ≥ 1000
CC1(C)CC(C(=O)Nc2cnc(C(=O)N3CC(F)(F)C3)c(C(F)F)c2)c2cnc3cc(Cl)nn3c21 (centres unmarked) [Example 174, 2-chloro-N-(6-(3,3-difluoroazetidine-1-carbonyl)-5-(difluoromethyl)pyridin-3-yl)-8,8-dimethyl-7,8-dihydro-6H-cyclopenta[e]pyrazolo[1,5-a]pyrimidine-6-carboxamide] | 100 to 1000
Cn1nnc(-c2ncc(NC(=O)[C@@H]3CC(C)(C)c4c3cnc3cc(Cl)nn43)cc2Cl)n1 (single isomer, unassigned) [Example 142, 2-chloro-N-(5-chloro-6-(2-methyl-2H-tetrazol-5-yl)pyridin-3-yl)-8,8-dimethyl-7,8-dihydro-6H-cyclopenta[e]pyrazolo[1,5-a]pyrimidine-6-carboxamide] | ≥ 1000
CC1(C)C[C@@H](C(=O)Nc2cnc(OC(F)F)c(C#N)c2)c2cnn3cc(C(F)F)nc3c21 (single isomer, unassigned) [Example 198, N-(5-cyano-6-(difluoromethoxy)pyridin-3-yl)-2-(difluoromethyl)-9,9-dimethyl-8,9-dihydro-7H-cyclopenta[d]imidazo[1,2-b]pyridazine-7-carboxamide] | ≥ 1000
O=C(Nc1cnc(-n2nccn2)c(Cl)c1)C1CC2(CCC2)c2c1cnc1cc(F)nn21 (single isomer, unassigned) [Example 109, N-(5-chloro-6-(2H-1,2,3-triazol-2-yl)pyridin-3-yl)-2′-fluoro-6′,7′-dihydrospiro[cyclobutane-1,8′-cyclopenta[e]pyrazolo[1,5-a]pyrimidine]-6′-carboxamide] | ≥ 1000
CC1(C)C[C@H](C(=O)Nc2cc(C#N)c(OC(F)F)cn2)c2cnc3cc(F)nn3c21 (single isomer, unassigned) [Example 170] | 10 to 100
CC1(C)C[C@@H](C(=O)Nc2cc(C(F)F)c(-c3ncco3)c(=O)[nH]2)c2cnc3cc(Cl)nn3c21 (single isomer, unassigned) [Example 57, 2-chloro-N-(4-(difluoromethyl)-5˜(oxazol-2-yl)-6-oxo-1,6-dihydropyridin-2-yl)-8,8-dimethyl-7,8-dihydro-6H-cyclopenta[e]pyrazolo[1,5-a]pyrimidine-6-carboxamide] | 100 to 1000
N#Cc1cc(NC(=O)C2CC3(CC3)c3c2cnc2cc(F)nn32)cnc1OC(F)F (centres unmarked) [Example 82, N-(5-cyano-6-(difluoromethoxy)pyridin-3-yl)-2-fluoro-6,7-dihydrospiro[cyclopenta[e]pyrazolo[1,5-a]pyrimidine-8,1′-cyclopropane]-6-carboxamide] | 10 to 100
Cc1cc(NC(=O)C2CC(C)(C)c3c2cnc2cc(F)nn32)cnc1N1CCC1 (centres unmarked) [Example 179, N-(6-(azetidin-1-yl)-5-methylpyridin-3-yl)-2-fluoro-8,8-dimethyl-7,8-dihydro-6H-cyclopenta[e]pyrazolo[1,5-a]pyrimidine-6-carboxamide] | ≥ 1000
CC1(C)CC(C(=O)Nc2cnc(C(=O)NC3CC3)c(C(F)(F)F)c2)c2cnc3cc(Cl)nn3c21 (centres unmarked) [Example 112, 2-chloro-N-(6-(cyclopropylcarbamoyl)-5˜(trifluoromethyl)pyridin-3-yl)-8,8-dimethyl-7,8-dihydro-6H-cyclopenta[e]pyrazolo[1,5-a]pyrimidine-6-carboxamide] | 100 to 1000
CC1(C)CC(C(=O)Nc2cnc(-c3nnn(C4COC4)n3)c(Cl)c2)c2cnc3cc(Cl)nn3c21 (centres unmarked) [Example 162, 2-chloro-N-(5-chloro-6-(2-(oxetan-3-yl)-2H-tetrazol-5-yl)pyridin-3-yl)-8,8-dimethyl-7,8-dihydro-6H-cyclopenta[e]pyrazolo[1,5-a]pyrimidine-6-carboxamide] | 10 to 100
Cc1cc(NC(=O)[C@@H]2CC(C)(C)c3c2cnc2cc(Cl)nn32)cnc1-n1nccn1 (single isomer, unassigned) [Example 181] | 10 to 100
Cc1cn2ncc3c(c2n1)C(C)(C)C[C@H]3C(=O)Nc1cnc(-n2nccn2)c(Cl)c1 (single isomer, unassigned) [Example 188, N-(5-chloro-6-(2H-1,2,3-triazol-2-yl)pyridin-3-yl)-2,9,9-trimethyl-8,9-dihydro-7H-cyclopenta[d]imidazo[1,2-b]pyridazine-7-carboxamide] | 100 to 1000
CC1(C)C[C@@H](C(=O)Nc2cnc(-n3nccn3)c(C#N)c2)c2cnn3cc(C(F)F)nc3c21 (single isomer, unassigned) [Example 196, N-(5-cyano-6-(2H-1,2,3-triazol-2-yl)pyridin-3-yl)-2-(difluoromethyl)-9,9-dimethyl-8,9-dihydro-7H-cyclopenta[d]imidazo[1,2-b]pyridazine-7-carboxamide] | 100 to 1000
C[C@@]1(C(F)(F)F)C[C@@H](C(=O)Nc2cnc(-n3nccn3)c(C(F)(F)F)c2)c2cnc3cc(Cl)nn3c21 (single isomer, unassigned) [Example 53, N-(6-(2H-1,2,3-triazol-2-yl)-5˜(trifluoromethyl)pyridin-3-yl)-2-chloro-8-methyl-8-(trifluoromethyl)-7,8-dihydro-6H-cyclopenta[e]pyrazolo[1,5-a]pyrimidine-6-carboxamide] | 100 to 1000
CC1(C)CC(C(=O)Nc2cc(C(F)F)c(-n3nccn3)c(=O)[nH]2)c2cnc3cc(Cl)nn3c21 (centres unmarked) [Example 61, 2-chloro-N-(4-(difluoromethyl)-6-oxo-5˜(2H-1,2,3-triazol-2-yl)-1,6-dihydropyridin-2-yl)-8,8-dimethyl-7,8-dihydro-6H-cyclopenta[e]pyrazolo[1,5-a]pyrimidine-6-carboxamide] | 10 to 100
O=C(Nc1cnc(-n2nccn2)c(C(F)(F)F)c1)C1CC2(CC2)c2c1cnc1cc(Cl)nn21 (single isomer, unassigned) [Example 148, N-(6-(2H-1,2,3-triazol-2-yl)-5-(trifluoromethyl)pyridin-3-yl)-2-chloro-6,7-dihydrospiro[cyclopenta[e]pyrazolo[1,5-a]pyrimidine-8,1′-cyclopropane]-6-carboxamide] | ≥ 1000
CCNC(=O)c1ncc(NC(=O)C2CC(C)(C)c3c2cnc2cc(Cl)nn32)cc1C(F)(F)F (centres unmarked) [Example 115, 2-chloro-N-(6-(ethylcarbamoyl)-5˜(trifluoromethyl)pyridin-3-yl)-8,8-dimethyl-7,8-dihydro-6H-cyclopenta[e]pyrazolo[1,5-a]pyrimidine-6-carboxamide] | 10 to 100
N#Cc1cc(NC(=O)[C@H]2CC3(CCOCC3)c3c2cnc2cc(F)nn32)cnc1OC(F)F (single isomer, unassigned) [Example 146, N-(5-cyano-6-(difluoromethoxy)pyridin-3-yl)-2-fluoro-2′,3′,5′,6,6′,7-hexahydrospiro[cyclopenta[e]pyrazolo[1,5-a]pyrimidine-8,4′-pyran]-6-carboxamide] | 10 to 100
O=C(Nc1cnc(-n2nccn2)c(Cl)c1)C1CC2(COC2)c2c1cnc1cc(Cl)nn21 (centres unmarked) [Example 165, 2-chloro-N-(5-chloro-6-(2H-1,2,3-triazol-2-yl)pyridin-3-yl)-6,7-dihydrospiro[cyclopenta[e]pyrazolo[1,5-a]pyrimidine-8,3′-oxetane]-6-carboxamide] | ≥ 1000
CC1(C)C[C@@H](C(=O)Nc2cnc(OC(F)F)c(C#N)c2)c2cnc3c(F)c(F)nn3c21 (single isomer, unassigned) [Example 90, N-(5-cyano-6-(difluoromethoxy)pyridin-3-yl)-2,3-difluoro-8,8-dimethyl-7,8-dihydro-6H-cyclopenta[e]pyrazolo[1,5-a]pyrimidine-6-carboxamide] | ≥ 1000
COc1cnc(C(F)(F)F)cc1NC(=O)C1CC(C)(C)c2c1cnc1cc(F)nn21 (single isomer, unassigned) [Example 93, 2-fluoro-N-(5-methoxy-2-(trifluoromethyl)pyridin-4-yl)-8,8-dimethyl-7,8-dihydro-6H-cyclopenta[e]pyrazolo[1,5-a]pyrimidine-6-carboxamide] | ≥ 1000
CC1(C)C[C@@H](C(=O)Nc2cnc(-n3nccn3)c(Cl)c2)c2cnn3cc(C(F)F)nc3c21 (single isomer, unassigned) [Example 202, N-(5-chloro-6-(2H-1,2,3-triazol-2-yl)pyridin-3-yl)-2-(difluoromethyl)-9,9-dimethyl-8,9-dihydro-7H-cyclopenta[d]imidazo[1,2-b]pyridazine-7-carboxamide] | 100 to 1000
